{"source": "patent US20220325235A1", "about": "“CELL CULTURE METHODS” (The University of Massachusetts, priority 2019, published 2022)", "key": {"[1]": {"system": "CHO-K1 cell line", "test": "Fed-batch spiking test: IgG glycan profile by HPLC with Glycan Column", "type": "cell-based, Chinese hamster", "procedure": "Industrial standard Fed-batch process: CHO-K1 cell line is cultured in corresponding media. Feed for 14 days, with 6 mM glutamine supplement on the inoculation day. The working volume is 30 mL in 125 mL shake flasks, and the inoculation cell density is 0.5 million cells/mL. The parameters for the shaking incubator are: 125 RPM, and 5% CO2. The feeding strategy is 10% corresponding feed everyday starting from day 3 to day 13.\nIn the standard industrial fed-batch process, cells were exposed to the inhibitors for a long period of time. This experiment mimics the therapeutic antibody production process, and spikes the inhibitors at their end-of-culture cellular concentration. ICA was confirmed as a known inhibitor and was used as a positive inhibitor control. Mixture condition excluded ICA and included AA, HICA, CMP, MSA, TRI, NAP. The process lasted for 14 days, and starting from day 6, the cell density under the inhibitor conditions were lower than the negative control batch.\nIgG titer was measured by HPLC with a Protein A column. Product quality was quantified by the IgG glycan profile, which was measured by HPLC with a Glycan Column."}, "[2]": {"system": "CHO cells", "test": "Batch culture spiking of metabolites at end-of-culture concentration: cell density", "type": "cell-based, Chinese hamster", "settings": "6 days, spiked at end-of-culture concentration", "procedure": "CHO K-1 industrial standard batch process: NIH CHO-K1 cell line is cultured for 6 days, with 6 mM glutamine supplement on the inoculation day. The working volume is 30 mL in 125 mL shake flasks, and the inoculation cell density is 0.5 million cells/mL. The parameters for the shaking incubator are: 125 RPM, and 5% CO2.\nCells were exposed to the identified inhibitory metabolites of Table 1 at their end-of-culture concentration for 6 days in batch culture. […] All of the inhibitory metabolites decreased the antibody productivity (FIG. 4)."}}, "note": "Entries after “also recorded” stand apart in the source; their conditions may differ."}
{"molecule": "CC(C)CC(O)C(=O)O", "note": "(stereo not drawn) [HICA, leucinic acid]", "values": [{"measurement": "Impact on G1F formation compared to control group", "setting": "[1]", "value": "higher impact"}]}
{"molecule": "CC(CC(=O)O)C(=O)O", "note": "(stereo not drawn) [MSA, methylsuccinic acid]", "values": [{"measurement": "Impact on G1F formation compared to control group", "setting": "[1]", "value": "higher impact"}]}
{"molecule": "O=C(O)C=C(CC(=O)O)C(=O)O", "note": "[AA, aconitic acid]", "values": [{"measurement": "Impact on G1F formation compared to control group", "setting": "[1]", "value": "higher impact"}, {"measurement": "Impact on G2F formation compared to control group", "setting": "[1]; Day 14", "value": "totally inhibits; also recorded: G2F was not formed"}, {"measurement": "Cell density compared with the control group", "setting": "[2]", "value": "lower cell density"}]}
{"molecule": "O=C(O)c1c[nH]c2ccccc12", "note": "[ICA, indole-3-carboxylic acid, reference compound]", "values": [{"measurement": "Impact on G1F formation compared to control group", "setting": "[1]", "value": "higher impact"}, {"measurement": "Cell density compared with the control group", "setting": "[2]", "value": "lower cell density"}]}
{"molecule": "Nc1ccn([C@@H]2O[C@H](COP(=O)(O)O)[C@@H](O)[C@H]2O)c(=O)n1", "note": "[CMP, cytidine monophosphate]", "values": [{"measurement": "Impact on G1F formation compared to control group", "setting": "[1]", "value": "higher impact"}, {"measurement": "Cell density compared with the control group", "setting": "[2]", "value": "lower cell density"}]}
